Experimental data from US8426386B2, “NK1 receptor antagonist composition” (Lion Corporation, priority 2006, dated 2013).

Tested on: NK1 receptor
Assay: NK1 Receptor Antagonism Assay (calcium imaging, substance P stimulation)
Format: cell-based, human
Conditions: for efficacy at a low concentration (in words): 0.1 ppm; for effect as the NK1 receptor antagonist (in words): summary of Table 1
Description: [Performance Evaluation Test] NK1 Receptor Antagonism Assay
In this test, maltose, maltotriose, maltotetraose, maltopentaose, maltohexaose and maltoheptaose were purchased from SIGMA, isomaltose, isomaltotriose, isomaltotetraose, isomaltopentaose, isomaltohexaose and isomaltoheptaose were purchased from Seikagaku Corporation, and four types of oligosaccharides-1-kestose, fructofranosylnystose, nystose and galactotetraose—were purchased from Wako Pure Chemicals Industries Ltd. Each oligosaccharide was diluted with saline, and used.
In order to transiently express a cloned human NK1 receptor in HEK293, cDNA of the human NK1 receptor was cut out from pCDM8 (Invitrogen), and cloned in an expression vector pCDM9 derived by inserting an ampicillin resistant gene (BLUESCRIPT, nucleotides 1973 to 2964 from SK+) at a SacII site.
HEK293 cells were seeded at 1×10^5 cells in a Falcon dish (diameter: 3.5 cm) using α-MEM medium (Gibco) containing 10% bovine fetal serum, and cultured in a 5% CO2 incubator at 37° C. overnight. Then, 20 μg of the expression vector was transfected using Transfection Reagent FuGENE6 (Roche) according to attached instructions, and the transfectants were incubated at 37° C. for 3 days and assayed by a calcium imaging method.
According to Renganathan et al's method (Renganathan M et al., J. Neurophysiol., 84(2), […] (2000)), nerve cells were dispersed and isolated from spinal dorsal root ganglion in a wild type mouse, and 1×10^5 thereof were seeded in a 24-well plate coated with poly-L-lysine. The cells were cultured in 90% DMEM medium (GIBCO) supplemented with 10% bovine fetal serum, 2 mM glutamine, 100 U/mL of penicillin/streptomycin, 100 ng/mL of NGF (SIGMA) and 5 μM cytosine arabinoside (SIGMA) under 5% CO2 at 37° C. The cells were cultured for 1 to 3 weeks, and subsequently subjected to a calcium imaging analysis. A half of the nerve cells was identified to be positive for the NK1 receptor by staining the nerve cells derived from spinal dorsal root ganglion in the wild type mouse with an anti-NK1 receptor antibody (supplied from CHEMICON International).
The cells which express the NK1 receptor transiently or constitutively were subjected to measurement using a high resolution digital B/W cooling CCD camera (ORCA supplied from Hamamatsu Photonics K.K.), and their images were analyzed using an analysis software (AQUA COSMOS supplied from Hamamatsu Photonics K.K.). When the cells were labeled for calcium, Fluo4-AM (supplied from Molecular Probe) was used as a calcium sensitive dye. Fifty μg of Fluo4-AM was dissolved in 400 μL of DMSO in a vial, 4 μL of Pluronic F-127 (Molecular Probe) was added and mixed, and then 4 mL of OPTI-MEM (GIBCO) was added thereto. The calcium sensitive dye solution thus prepared was added to the cells, which were then incubated at 37° C. for 60 minutes. An agonist, an antagonist and samples to be evaluated were prepared at concentrations which were 10 times higher than assay concentrations, and analyzed by adding a one tenth volume of the cell suspension upon analysis. All reagents and an assay temperature were kept at 37° C. For the cells transfected transiently, YFP reporter DNA fluorescence (excitation: 490 nm) was used for identifying the transfected cells. Upon measurement, a fluorescence intensity obtained by initially imaging the untreated cells was made an initial value. After passing one minute, a change of calcium/fluorescence intensity in the sample to be evaluated at the desired concentration was monitored with an interval of one second before and after the addition (2 to 5 minutes). Subsequently, substance P was added, and immediately after (2 to 5 minutes), an antagonistic activity of the sample to be evaluated was determined by monitoring the change of intracellular calcium concentrations as the change of the fluorescence intensities with the interval of one second. […]

[1] = evaluated concentration 0.1 ppm, substance P 100 μM
[2] = evaluated concentration 1 ppm, substance P 100 μM
[3] = evaluated concentration 10 ppm, substance P 100 μM
[4] = evaluated concentration 100 ppm, substance P 100 μM
[5] = evaluated concentration 1000 ppm, substance P 100 μM

efficacy at a low concentration (in words) | NK1 receptor antagonistic activity (positive control, 100 ppm (Table 1), substance P 100 μM) [%] | Compound | Efficacy (NK1 receptor antagonistic activity grade) [1] | Efficacy (NK1 receptor antagonistic activity grade) [2] | Efficacy (NK1 receptor antagonistic activity grade) [3] | Efficacy (NK1 receptor antagonistic activity grade) [4] | Efficacy (NK1 receptor antagonistic activity grade) [5] | effect as the NK1 receptor antagonist (in words)
high efficacy | – | OC[C@H]1O[C@H](O[C@H]2[C@H](O)[C@@H](O)[C@@H](O[C@H]3[C@H](O)[C@@H](O)[C@@H](O[C@H]4[C@H](O)[C@@H](O)C(O)O[C@@H]4CO)O[C@@H]3CO)O[C@@H]2CO)[C@H](O)[C@@H](O)[C@@H]1O (some centres unmarked) [Maltotetraose, maltotetraose] | B (Effective: the antagonistic activity was 65% or more and less than 75% and the more excellent performance than in the positive control was shown.) | A (Complete response: the antagonistic activity was 75% or more and much more excellent performance than in the positive control was shown.) | A (Complete response: the antagonistic activity was 75% or more and much more excellent performance than in the positive control was shown.) | A (Complete response: the antagonistic activity was 75% or more and much more excellent performance than in the positive control was shown.) | A (Complete response: the antagonistic activity was 75% or more and much more excellent performance than in the positive control was shown.) | high effect
– | – | maltohexaose | C (Slightly effective: the antagonistic activity was less than 65%, and a stimulating or agonistic activity of the sample was weak.) | C (Slightly effective: the antagonistic activity was less than 65%, and a stimulating or agonistic activity of the sample was weak.) | B (Effective: the antagonistic activity was 65% or more and less than 75% and the more excellent performance than in the positive control was shown.) | B (Effective: the antagonistic activity was 65% or more and less than 75% and the more excellent performance than in the positive control was shown.) | B (Effective: the antagonistic activity was 65% or more and less than 75% and the more excellent performance than in the positive control was shown.) | high effect
– | – | OC[C@H]1O[C@H](OC[C@H]2O[C@H](OC[C@H]3O[C@H](OC[C@H]4O[C@H](OC[C@H]5O[C@H](OC[C@H]6OC(O)[C@H](O)[C@@H](O)[C@@H]6O)[C@H](O)[C@@H](O)[C@@H]5O)[C@H](O)[C@@H](O)[C@@H]4O)[C@H](O)[C@@H](O)[C@@H]3O)[C@H](O)[C@@H](O)[C@@H]2O)[C@H](O)[C@@H](O)[C@@H]1O (some centres unmarked) [Isomaltohexaose, isomaltohexaose, reference compound] | – | – | – | – | D (Ineffective: the antagonistic activity was less than 65%, or the stimulating or agonistic activity of the sample was strong.) | no NK1 receptor antagonistic activity was observed at all
high efficacy | – | maltopentaose | B (Effective: the antagonistic activity was 65% or more and less than 75% and the more excellent performance than in the positive control was shown.) | B (Effective: the antagonistic activity was 65% or more and less than 75% and the more excellent performance than in the positive control was shown.) | B (Effective: the antagonistic activity was 65% or more and less than 75% and the more excellent performance than in the positive control was shown.) | A (Complete response: the antagonistic activity was 75% or more and much more excellent performance than in the positive control was shown.) | A (Complete response: the antagonistic activity was 75% or more and much more excellent performance than in the positive control was shown.) | high effect
– | – | OC[C@H]1O[C@H](OC[C@H]2OC(O)[C@H](O)[C@@H](O)[C@@H]2O)[C@H](O)[C@@H](O)[C@@H]1O (some centres unmarked) [Isomaltose, isomaltose, reference compound] | – | – | – | – | D (Ineffective: the antagonistic activity was less than 65%, or the stimulating or agonistic activity of the sample was strong.) | no NK1 receptor antagonistic activity was observed at all
– | – | OC[C@H]1O[C@@](CO)(OC[C@@]2(OC[C@@]3(O[C@H]4O[C@H](CO)[C@@H](O)[C@H](O)[C@H]4O)O[C@H](CO)[C@@H](O)[C@@H]3O)O[C@H](CO)[C@@H](O)[C@@H]2O)[C@@H](O)[C@@H]1O [Nystose, nystose, reference compound] | – | – | – | – | D (Ineffective: the antagonistic activity was less than 65%, or the stimulating or agonistic activity of the sample was strong.) | no NK1 receptor antagonistic activity was observed at all
– | – | OC[C@H]1O[C@H](OC[C@H]2O[C@H](OC[C@H]3OC(O)[C@H](O)[C@@H](O)[C@@H]3O)[C@H](O)[C@@H](O)[C@@H]2O)[C@H](O)[C@@H](O)[C@@H]1O (some centres unmarked) [Isomaltotriose, isomaltotriose, reference compound] | – | – | – | – | D (Ineffective: the antagonistic activity was less than 65%, or the stimulating or agonistic activity of the sample was strong.) | no NK1 receptor antagonistic activity was observed at all
– | – | OC[C@H]1O[C@@](CO)(OC[C@@]2(O[C@H]3O[C@H](CO)[C@@H](O)[C@H](O)[C@H]3O)O[C@H](CO)[C@@H](O)[C@@H]2O)[C@@H](O)[C@@H]1O [Example 1-Kestose, 1-kestose, reference compound] | – | – | – | – | D (Ineffective: the antagonistic activity was less than 65%, or the stimulating or agonistic activity of the sample was strong.) | no NK1 receptor antagonistic activity was observed at all
– | 65 | SPANTIDE II: standard substance SPANTIDE II (peptidic analog of substance P), positive control (SPANTIDEII) [reference compound] | – | – | – | – | – | –
– | – | OC[C@H]1O[C@@H](O[C@@H]2[C@H](O)[C@@H](O)[C@H](O[C@@H]3[C@H](O)[C@@H](O)[C@H](O[C@@H]4[C@H](O)[C@@H](O)C(O)O[C@@H]4CO)O[C@@H]3CO)O[C@@H]2CO)[C@H](O)[C@@H](O)[C@H]1O (some centres unmarked) [Galactotetraose, galactotetraose, reference compound] | – | – | – | – | D (Ineffective: the antagonistic activity was less than 65%, or the stimulating or agonistic activity of the sample was strong.) | no NK1 receptor antagonistic activity was observed at all
– | – | OC[C@H]1O[C@H](OC[C@H]2O[C@H](OC[C@H]3O[C@H](OC[C@H]4O[C@H](OC[C@H]5O[C@H](OC[C@H]6O[C@H](OC[C@H]7OC(O)[C@H](O)[C@@H](O)[C@@H]7O)[C@H](O)[C@@H](O)[C@@H]6O)[C@H](O)[C@@H](O)[C@@H]5O)[C@H](O)[C@@H](O)[C@@H]4O)[C@H](O)[C@@H](O)[C@@H]3O)[C@H](O)[C@@H](O)[C@@H]2O)[C@H](O)[C@@H](O)[C@@H]1O (some centres unmarked) [Isomaltoheptaose, isomaltoheptaose, reference compound] | – | – | – | – | D (Ineffective: the antagonistic activity was less than 65%, or the stimulating or agonistic activity of the sample was strong.) | no NK1 receptor antagonistic activity was observed at all
